From paper doi:10.1101/2025.11.19.689330v1 (bioRxiv, 2025)

Experiments:
Type in all cases: cell-based, human
Golgi of HeLa cells [1] = assay: BFA-induced Golgi disassembly in cells prelabeled with 2; settings: HeLa cells prelabeled with 2 (10 nM, 30 min), BFA 10 μM
Golgi of HeLa cells [2] = assay: CLSM Golgi labeling at ultralow concentrations; settings: 4 hours
Golgi of HeLa cells [3] = assay: Time-lapse CLSM of Golgi fluorescence build-up; settings: over 24 minutes
Golgi of HeLa cells [4] = assay: FRAP assay at the Golgi; settings: 500 nM, after 30-minute treatment
Golgi of HeLa cells [5] = assay: FRET co-assembly of 2 with quencher 7, Golgi fluorescence over 24 minutes; settings: 2 (10 nM) with 7 (5, 10, 20 nM) or UBQ2-COOH (10, 20 nM)

Question: What does the source list for `C[C@H]1CCC/C=C/[C@@H]2C[C@H](O)C[C@H]2[C@H](O)/C=C/C(=O)O1` [BFA, brefeldin A]?
Answer: time at which the Golgi begins to lose its defined morphology (Golgi of HeLa cells [1]): 5.5 minutes; time at which the Golgi collapses into the ER (Golgi of HeLa cells [1]): 6.5 min

Question: With `CCCCCCCCCCCCC/C=C/[C@@H](O)[C@H](CO)NC(=O)CCCCC1=[N+]2C(=Cc3c(C)cc(C)n3[B-]2(F)F)C=C1` [BODIPY-C5-Ceramide] as the compound, how does the “Golgi fluorescence at 10 nM” value (Golgi of HeLa cells [2]; 10 nM) read?
Answer: very dim fluorescence at the Golgi

Question: And the “Golgi localization at picomolar concentrations” value (Golgi of HeLa cells [2]; picomolar concentrations (500 pM))?
Answer: no detectable Golgi localization

Question: What about the “Golgi fluorescence in time-lapse imaging at 10 nM” value (Golgi of HeLa cells [3]) of the same compound?
Answer: no significant Golgi fluorescence

Question: What about the “immobile fraction (IMf) at the Golgi” value (Golgi of HeLa cells [4]) of the same compound?
Answer: 0.52

Question: With `COc1cc(N=Nc2ccc([N+](=O)[O-])cc2)c(OC)cc1N=Nc1ccc(N(C)CCCC(=O)O)cc1` [UBQ2] as the compound, how does the “effect on Golgi fluorescence of 2 on co-treatment” value (Golgi of HeLa cells [5]) read?
Answer: did not diminish Golgi fluorescence
